The values that follow come from US10124111B2, “Small molecule dye for molecular imaging and photothermal therapy” (The Board of Trustees of the Leland Stanford Junior …, priority 2015, dated 2018).

The subject of data set [1] is shoulder xenograft U87MG tumors. Kind of data set: Lymph node / lymphatic vasculature and tumor imaging after intradermal injection. The data set is classed as in vivo, immunodeficient nude mice. The conditions noted are these: intradermal injection near base of tail. An excerpt: An emerging fluorescent imaging application of ICG currently undergoing clinical trials is in detecting sentinel lymph nodes (SLN) for surgical resection.(28-30) Selectively removing sentinel lymph nodes alleviates lymphedema and other ailments that would be caused by total lymph node removal performed to prevent cancer metastasis. Fluorescent imaging has many benefits compared to the more traditional detection means that include injecting a colored dye, a radioisotope, or a combination of both. ICG is typically injected near a tumor to visualize the lymphatic vessels draining the tumor as well as the sentinel lymph nodes. […] Immediately after injection, CH1055-PEG drainage into the internodal collecting lymphatic vasculature and the inguinal lymph node became apparent. […] (data not shown)
The gradual increase in fluorescence emanating from the tumor occurred while all lymphatic vessels and nodes were still visible.

The nature of data set [2]: Optical characterization (emission spectrum, quantum yield, photostability). The settings on record: 808 nm excitation laser. The data set is classed as physicochemical. The source says:
The NIR fluorescence spectrum was taken using a home-built NIR spectroscopy setup. The excitation source was a 200-W ozone-free mercury/xenon lamp (Oriel), which was dispersed by a monochromator (Oriel) to generate an excitation line with a bandwidth of 15 nm. The excitation light was allowed to pass through the solution sample in a 1-mm-path cuvette (Starna Cells, Inc.), and the emission was collected in a transmission geometry. The […] was collected in the 790-1500 nm emission range. The emitted light was directed into a spectrometer (Acton SP2300i) equipped with a liquid-nitrogen-cooled InGaAs linear array detector (Princeton OMA-V). Spectra were corrected post-collection to account for the sensitivity of the detector and extinction feature of the filter. Photostability was determined by spiking CH1055-PEG into serum, PBS, and DI and exposing it in a 1-mm path length cuvette (Starna Cells, Inc.) to continuous 808 nm excitation at a power density of 0.3 W/cm^2 and taking images every 10 seconds for ˜1 hour. Stability was determined by measuring the ROI and comparing the fluorescence intensity to the starting fluorescence signal.
In order to further increase solubility, the carboxylic acid groups of CH1055 were PEGylated with 2 kDa PEG-NH2 through EDC/NHS chemistry.

Data set [3] is described as follows: Photoacoustic imaging analysis of phantoms. The data set is classed as physicochemical. The source says: For studying the PAI properties of the compound, a cuboid container was half filled with 1% agarose gel to half depth. Different concentrations of compounds aqueous solutions were filled into polyethylene capillaries and then the capillaries were laid on the surface of solidified agarose gel. The capillaries were further covered with thin 1% agarose gel to make the surface smooth. PA spectra and PA/US coregistered images were acquired with a LAZR commercial instrument (VevoLAZR; VisualSonics). It is equipped with a LZ-250 linear array transducer and a tunable Nd:YAG laser system (680-970 nm). In our system, the Vevo LAZR PAI System with a laser at excitation wavelength of 700 nm and a focal depth of 10 mm was used to acquire PA and US images. […] Acquisition rate of 5 frames per second was used for all the experiments. The photoacoustic gain was kept at 42 dB, dynamic range at 18 dB and center frequency of 21 MHz for all studies. US and PA images were obtained sequentially. The PA signals reported were the average pixel intensities from within the Regions of Interest (ROIs). Normalization and quantification of the images were carried out using ImageJ.
Fluorophores with the present design not only have NIR II fluorescence, but also show strong absorption in the NIR-I region and show promise for in vivo photoacoustic imaging. […]

Another data set concerns human and bovine albumin. Kind of data set: Binding of CH-4T to serum proteins. The conditions noted are these: whole blood, HDL. The method, then: (§1) This fluorescence enhancement produces a serum quantum yield of up to ˜10% which is on par with ICG and is among the highest quantum yields of all NIR-II fluorophores (including carbon nanotubes). While soluble in PBS, the quantum yield of CH-4T was determined to be ˜0.07%, yet is enhanced ˜60× through complexation with serum proteins in FBS.

The next data set is described as follows: Aqueous solubility. The settings on record: water / PBS. The data set is classed as physicochemical.
Data set [4] can be described thus: Preliminary animal imaging of CH-4T excretion. The data set is classed as in vivo. The source says:
It is a small molecule dye similar to ICG, Cy5, and IR800, and enables easier access to NIR-II imaging, as it doesn't require a specialized knowledge of nanomaterials which make up the majority of NIR-II fluorophores.

Data set [5] in a line: NIR-II fluorescence brightness and quantum yield in DI, PBS, FBS, serum and serum proteins. The data set is classed as physicochemical.
Source text: The compound contains a taurine (2-aminoethanesulfonic acid) group at the carboxyl linkers of CH1055. […] Sulfonating the present NIR-II dyes is a general procedure that can be applied to a number of the NIR-II small molecules described above to increase their solubility.
The absorbance value of both fluorophores (OD 0.02) in each respective media is equivalent at the excitation wavelength (808 nm) to compare relative quantum yields. NIR-IIa fluorescent image of a C57 mouse brain (1300 LP) after an intravenous injection of equivalent doses of CH-4T (200 ms exposure; Panel B) and of CH1055-PEG (1 s exposure; Panel D). The image intensity scales have been compensated to account for the differences in the exposure times needed to clearly resolve brain vasculature.
as §1
Increased brightening of CH-4T also results from protein interactions. A fluorescence emission spectrum of CH1055-PEG and CH-4T in both FBS and PBS was determined. […] The increased intensity (40,000 a.u. around 1000 nm) for CH-4T in FBS was observed.
While CH-4T complexed with proteins produces an incredibly bright contrast agent, pretreatment of the proteins prior to complexation and subsequent isolation of the bright dye-protein complexes can introduce a further increase in brightness. For instance, a short 10 minutes of horn sonication of FBS prior to mixing with CH-4T followed by 10 minutes of heating in a hot water bath at ˜80° C. can boost the brightness of the CH-4T-protein complex by ˜3-4-fold. The effects on the fluorescence emission spectrum of heating and pre-horn sonicating can be seen while the brightness difference of an FBS-CH-4T solution before and after treatment (data not shown). […]

SMILES strings stand for the structures.

With `CC1(C)C(/C=C/C=C/C=C/C=C2\N(CCCCS(=O)(=O)O)c3ccc4ccccc4c3C2(C)C)=[N+](CCCCS(=O)(=O)[O-])c2ccc3ccccc3c21` [ICG, indocyanine green], in data set [1], the “liver signal after intradermal injection” value was “obvious liver signal” and the “tumor fluorescence after intradermal injection” value is “little tumor signal was observed”.

On to `O=C(O)CCc1ccc(N(c2ccc(CCC(=O)O)cc2)c2ccc(-c3c4c(c(-c5ccc(N(c6ccc(CCC(=O)O)cc6)c6ccc(CCC(=O)O)cc6)cc5)c5nsnc35)N=S=N4)cc2)cc1` [CH1055], for which the “peak fluorescent emission wavelength” value in data set [2] is listed as roughly 1055 nm. In data set [3], this compound returned an NIR-I absorption maximum of 700 nm. In data set [3] (NIR pulsed laser, 680-970 nm scan), the “wavelength of maximum photoacoustic signal” value is reported as 700 nm.

As to `O=C(CCc1ccc(N(c2ccc(CCC(=O)NCCS(=O)(=O)O)cc2)c2ccc(-c3c4c(c(-c5ccc(N(c6ccc(CCC(=O)NCCS(=O)(=O)O)cc6)c6ccc(CCC(=O)NCCS(=O)(=O)O)cc6)cc5)c5nsnc35)N=S=N4)cc2)cc1)NCCS(=O)(=O)O` [CH-4T], the “binding to serum proteins” value in the data set on human and bovine albumin is reported as “strong binding”. For the same compound, the aqueous solubility entry in the data set “Aqueous solubility” is reported as “highly soluble”. The excretion kinetics entry in data set [4] is “resemble that of ICG”. For the same compound, the quantum yield in data set [5] (in PBS) is roughly 0.07%; in data set [5] (with treated FBS (sonicated, heated)), roughly 13%. Further, in data set [5] (in serum, complexed with serum proteins), the serum quantum yield is no more than 10%.
